Laboratory results as given in ChEMBL document CHEMBL1201862, “PubChem BioAssay data set” (2004).
Active and inactive are the calls of the source.

Key:
Exodeoxyribonuclease V = Exodeoxyribonuclease V (Escherichia coli (strain K12), UniProt P04993+P07648+P08394); test: RecBCD inhibition via phage-restricted bacterial growth – absorbance, V66 E. coli, mutant T4 phage, counter-screen for AddAB inhibitor project, dose response (AID 492957); type: functional, cell-based, Escherichia coli str. K-12 substr. MG1655
Chain of Exodeoxyribonuclease V (P04993 whole entry): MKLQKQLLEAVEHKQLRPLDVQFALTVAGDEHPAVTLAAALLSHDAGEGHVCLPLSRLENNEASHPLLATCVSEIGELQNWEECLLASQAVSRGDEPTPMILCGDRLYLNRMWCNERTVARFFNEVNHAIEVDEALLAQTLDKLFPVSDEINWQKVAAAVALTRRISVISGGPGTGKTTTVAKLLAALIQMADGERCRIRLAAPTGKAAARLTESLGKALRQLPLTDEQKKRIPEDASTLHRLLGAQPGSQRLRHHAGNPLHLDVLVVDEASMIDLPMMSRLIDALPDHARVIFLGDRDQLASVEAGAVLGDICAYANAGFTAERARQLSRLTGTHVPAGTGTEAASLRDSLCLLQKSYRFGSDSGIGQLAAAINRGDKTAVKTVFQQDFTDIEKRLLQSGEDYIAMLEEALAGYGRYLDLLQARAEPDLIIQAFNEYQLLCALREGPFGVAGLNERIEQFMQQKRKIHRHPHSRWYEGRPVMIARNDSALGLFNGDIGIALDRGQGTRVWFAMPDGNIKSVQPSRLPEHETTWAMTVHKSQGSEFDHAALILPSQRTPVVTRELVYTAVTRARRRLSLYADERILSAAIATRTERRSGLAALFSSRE
Chain of Exodeoxyribonuclease V (P07648 whole entry): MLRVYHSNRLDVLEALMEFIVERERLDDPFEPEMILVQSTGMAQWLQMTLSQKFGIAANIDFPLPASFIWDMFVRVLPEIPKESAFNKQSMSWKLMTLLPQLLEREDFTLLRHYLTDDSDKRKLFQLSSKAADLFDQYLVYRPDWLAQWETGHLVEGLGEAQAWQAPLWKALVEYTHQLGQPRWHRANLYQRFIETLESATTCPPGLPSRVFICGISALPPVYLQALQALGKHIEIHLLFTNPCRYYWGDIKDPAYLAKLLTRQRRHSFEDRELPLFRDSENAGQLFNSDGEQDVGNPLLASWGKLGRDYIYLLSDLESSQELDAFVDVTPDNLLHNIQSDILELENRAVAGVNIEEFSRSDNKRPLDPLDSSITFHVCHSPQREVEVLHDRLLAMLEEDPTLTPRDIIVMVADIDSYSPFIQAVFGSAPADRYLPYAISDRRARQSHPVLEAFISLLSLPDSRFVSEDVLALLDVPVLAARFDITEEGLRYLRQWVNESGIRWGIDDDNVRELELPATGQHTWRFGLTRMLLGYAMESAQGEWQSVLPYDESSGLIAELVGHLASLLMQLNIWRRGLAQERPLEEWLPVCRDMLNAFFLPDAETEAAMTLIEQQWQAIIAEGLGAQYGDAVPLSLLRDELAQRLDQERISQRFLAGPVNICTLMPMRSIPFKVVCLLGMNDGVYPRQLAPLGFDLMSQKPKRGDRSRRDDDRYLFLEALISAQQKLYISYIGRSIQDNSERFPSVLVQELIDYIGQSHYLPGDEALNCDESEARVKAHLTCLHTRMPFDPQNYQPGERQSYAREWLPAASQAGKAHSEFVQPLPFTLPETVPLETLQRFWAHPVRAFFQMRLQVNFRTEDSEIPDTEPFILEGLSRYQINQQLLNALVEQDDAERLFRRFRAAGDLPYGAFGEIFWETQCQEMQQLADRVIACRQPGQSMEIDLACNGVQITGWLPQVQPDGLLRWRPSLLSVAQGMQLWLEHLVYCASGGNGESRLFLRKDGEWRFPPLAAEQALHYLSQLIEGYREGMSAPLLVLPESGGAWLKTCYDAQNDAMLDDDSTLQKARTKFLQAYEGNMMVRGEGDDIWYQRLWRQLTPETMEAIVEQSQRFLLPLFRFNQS
Chain of Exodeoxyribonuclease V (P08394 whole entry): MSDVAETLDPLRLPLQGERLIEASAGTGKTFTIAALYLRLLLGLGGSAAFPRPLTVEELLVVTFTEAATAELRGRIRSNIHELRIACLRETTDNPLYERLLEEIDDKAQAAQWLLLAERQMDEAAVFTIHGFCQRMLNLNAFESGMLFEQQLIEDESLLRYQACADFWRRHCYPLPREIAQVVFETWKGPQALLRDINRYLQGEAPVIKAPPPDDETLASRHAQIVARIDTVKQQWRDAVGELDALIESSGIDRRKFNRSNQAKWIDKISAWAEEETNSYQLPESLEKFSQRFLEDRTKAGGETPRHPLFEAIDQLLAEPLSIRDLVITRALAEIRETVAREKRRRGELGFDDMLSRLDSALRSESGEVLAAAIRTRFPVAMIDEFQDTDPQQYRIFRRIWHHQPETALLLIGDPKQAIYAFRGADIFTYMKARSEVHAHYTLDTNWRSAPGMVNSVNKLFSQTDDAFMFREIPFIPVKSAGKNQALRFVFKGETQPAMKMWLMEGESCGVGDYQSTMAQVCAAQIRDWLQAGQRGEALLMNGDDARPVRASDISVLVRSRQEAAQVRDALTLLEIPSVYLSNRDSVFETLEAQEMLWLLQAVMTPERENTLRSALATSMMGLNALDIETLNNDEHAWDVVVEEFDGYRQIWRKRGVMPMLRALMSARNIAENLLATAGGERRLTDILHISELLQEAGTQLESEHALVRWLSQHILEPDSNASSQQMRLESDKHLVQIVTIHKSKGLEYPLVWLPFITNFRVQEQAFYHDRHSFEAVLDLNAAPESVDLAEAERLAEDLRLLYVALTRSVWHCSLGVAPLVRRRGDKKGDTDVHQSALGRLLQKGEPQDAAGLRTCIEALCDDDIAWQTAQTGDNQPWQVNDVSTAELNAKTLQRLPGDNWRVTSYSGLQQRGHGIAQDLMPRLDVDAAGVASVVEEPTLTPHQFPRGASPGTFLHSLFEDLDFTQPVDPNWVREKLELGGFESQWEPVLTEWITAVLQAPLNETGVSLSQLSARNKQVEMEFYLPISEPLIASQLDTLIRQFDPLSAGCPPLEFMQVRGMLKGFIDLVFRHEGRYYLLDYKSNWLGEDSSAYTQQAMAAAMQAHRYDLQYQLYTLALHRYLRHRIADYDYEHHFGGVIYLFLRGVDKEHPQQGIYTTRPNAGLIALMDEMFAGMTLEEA

[1] = Counterscreen for AddAB inhibitors: absorbance-based bacterial cell-based high throughput dose response assay for inhibitors of bacterial viability. [Related pubchem assays (depositor defined):AID435030, AID449728, AID449731, AID488942, AID488955, AID488956]; type: functional
HEK293 = test: EBV LMP1 TES2 canonical NF-kB signalling blockers – cell-based, HEK293, luciferase, cherry-pick, dose response (AID 588343); type: functional; conditions: Homo sapiens
INS1 [2] = test: INS-1E survival protection against cytokine death – cell-based, luminescence, retest, dose response (AID 449756); type: functional; conditions: Rattus norvegicus;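 also: cell death triggered by IL-1 beta plus TNF-alpha plus IFN-gamma mixture; protective hits raise ATP signal compared with cytokine alone wells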
SUMO-activating enzyme [3] = target: T1, SUMO-activating enzyme (Homo sapiens, UniProt Q9UBT2); test: blockers of UBC9-mediated SUMO conjugation – biochemical, AlphaScreen, SUMOylation inhibitor project, confirmation (AID 2018); type: functional
T1 sequence (Q9UBE0 whole entry): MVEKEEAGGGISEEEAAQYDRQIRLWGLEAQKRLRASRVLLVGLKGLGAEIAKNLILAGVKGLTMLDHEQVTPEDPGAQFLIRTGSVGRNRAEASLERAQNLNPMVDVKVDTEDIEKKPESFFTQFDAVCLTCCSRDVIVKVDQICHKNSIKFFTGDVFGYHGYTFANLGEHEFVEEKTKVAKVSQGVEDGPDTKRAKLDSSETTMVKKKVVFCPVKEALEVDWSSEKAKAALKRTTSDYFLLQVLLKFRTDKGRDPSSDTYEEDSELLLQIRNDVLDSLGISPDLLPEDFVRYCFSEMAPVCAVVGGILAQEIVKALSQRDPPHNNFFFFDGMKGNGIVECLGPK
T1 sequence (Q9UBT2 whole entry): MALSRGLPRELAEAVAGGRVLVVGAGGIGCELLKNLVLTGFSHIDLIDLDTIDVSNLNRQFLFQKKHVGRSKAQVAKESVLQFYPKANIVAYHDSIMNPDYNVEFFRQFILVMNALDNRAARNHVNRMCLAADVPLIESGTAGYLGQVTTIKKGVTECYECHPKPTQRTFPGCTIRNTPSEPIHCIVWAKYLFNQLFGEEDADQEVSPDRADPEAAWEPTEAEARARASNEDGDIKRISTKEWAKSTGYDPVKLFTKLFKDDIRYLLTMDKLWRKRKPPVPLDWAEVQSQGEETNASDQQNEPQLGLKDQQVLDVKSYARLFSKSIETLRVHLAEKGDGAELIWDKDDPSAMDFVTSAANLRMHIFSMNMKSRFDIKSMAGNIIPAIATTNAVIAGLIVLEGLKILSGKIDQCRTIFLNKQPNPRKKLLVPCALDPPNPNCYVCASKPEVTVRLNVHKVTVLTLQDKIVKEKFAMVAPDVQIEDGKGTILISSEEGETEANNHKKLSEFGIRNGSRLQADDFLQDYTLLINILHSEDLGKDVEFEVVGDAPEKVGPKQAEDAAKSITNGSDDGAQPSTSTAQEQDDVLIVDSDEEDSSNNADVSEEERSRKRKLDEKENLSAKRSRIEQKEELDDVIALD

[4] = target: G-protein coupled receptor 55 (Homo sapiens, UniProt Q9Y2T6); test: inhibition of LPI-stimulated GPR55 beta-arrestin translocation – imaging, U2OS, beta-arrestin-GFP, LPI agonist, primary screen (AID 2013); type: functional;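 also: antagonist potency measured as reduced agonist-driven arrestin aggregation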
Chain of G-protein coupled receptor 55 (Q9Y2T6 whole entry): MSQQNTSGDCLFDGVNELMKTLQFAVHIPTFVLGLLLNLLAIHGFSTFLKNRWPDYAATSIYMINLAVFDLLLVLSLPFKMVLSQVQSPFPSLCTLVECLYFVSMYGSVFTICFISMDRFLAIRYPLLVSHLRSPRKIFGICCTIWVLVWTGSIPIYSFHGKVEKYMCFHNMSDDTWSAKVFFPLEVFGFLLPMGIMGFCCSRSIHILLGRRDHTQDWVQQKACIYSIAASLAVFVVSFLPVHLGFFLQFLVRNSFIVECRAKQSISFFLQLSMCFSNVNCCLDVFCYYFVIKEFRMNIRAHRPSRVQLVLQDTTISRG

SUMO-activating enzyme [5] = target: T1, SUMO-activating enzyme; test: blockers of SAE1/SAE2–UBC9 SUMO transfer – biochemical, HTRF, uHTS, primary screen (AID 2006); type: protein-complex assay
[6] = target: Eukaryotic translation initiation factor 4E (Mus musculus, UniProt P63073); test: blockers of eIF4G binding by eIF4E – biochemical, TR-FRET, dose response (AID 855); type: functional;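 also: potency for disrupting eIF4E binding to eIF4GI seen as loss of FRET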
Chain of Eukaryotic translation initiation factor 4E (P63073 whole entry): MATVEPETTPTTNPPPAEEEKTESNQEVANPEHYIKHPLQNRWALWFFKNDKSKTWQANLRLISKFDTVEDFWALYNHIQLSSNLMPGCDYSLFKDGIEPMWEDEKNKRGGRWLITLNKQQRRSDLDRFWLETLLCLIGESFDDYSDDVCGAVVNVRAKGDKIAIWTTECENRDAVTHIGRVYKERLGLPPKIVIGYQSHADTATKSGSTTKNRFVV

[7] = target: T2, Rac GTPase-activating protein 1 (Homo sapiens, UniProt Q9H0H5); test: blockers of MgcRacGAP-driven Rac1 GTP hydrolysis – biochemical, ADP Hunter fluorescence, primary and confirmatory, confirmation (AID 624330); type: functional
T2 sequence (Q9H0H5 whole entry): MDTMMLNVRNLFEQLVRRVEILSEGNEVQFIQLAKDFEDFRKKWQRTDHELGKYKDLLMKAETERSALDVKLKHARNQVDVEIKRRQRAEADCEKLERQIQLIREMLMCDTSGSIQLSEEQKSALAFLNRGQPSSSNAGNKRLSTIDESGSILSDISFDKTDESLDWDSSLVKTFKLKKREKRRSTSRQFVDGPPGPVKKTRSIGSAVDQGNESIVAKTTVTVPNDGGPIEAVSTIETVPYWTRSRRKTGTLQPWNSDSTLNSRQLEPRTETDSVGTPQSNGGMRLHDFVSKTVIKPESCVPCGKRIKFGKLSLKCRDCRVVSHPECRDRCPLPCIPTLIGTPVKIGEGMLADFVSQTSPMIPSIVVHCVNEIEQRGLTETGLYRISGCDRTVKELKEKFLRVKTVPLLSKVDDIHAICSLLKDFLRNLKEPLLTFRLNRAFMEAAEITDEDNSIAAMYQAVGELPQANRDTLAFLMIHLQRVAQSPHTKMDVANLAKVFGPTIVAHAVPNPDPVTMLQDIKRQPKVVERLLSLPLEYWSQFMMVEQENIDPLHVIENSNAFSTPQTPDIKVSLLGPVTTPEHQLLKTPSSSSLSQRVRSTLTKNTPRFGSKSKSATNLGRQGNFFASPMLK

[8] = Luminescence Cell-Based/Microorganism Confirmation at Dose of Inhibitors of Trypanosoma cruzi Infection. [Related pubchem assays: 1885, 1968 ]; type: functional
[9] = Trypanosoma cruzi growth suppression in host cells – NIH3T3 host cells, beta-gal luminescence, confirmation (AID 2044); type: functional, cell-based;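 also: intracellular parasites grown in NIH/3T3 mouse fibroblasts as host cells; luminescent beta-galactosidase reporter signal from transgenic T. cruzi replicating inside host cells; inhibitors lower the luminescence signal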
[10] = Luminescence Cell-Based Secondary HTS screen to identify cytotoxic compounds of NIH3T3 cells. [Related pubchem assays: 1885, 1968 ]; type: functional
[11] = NIH3T3 cell viability loss – ATP luminescence, mouse fibroblasts, counter-screen, dose response (AID 2010); type: functional, cell-based;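 also: cells exposed to compound for about 90 hours before reading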
[12] = T. cruzi infection blockers in NIH3T3 cells – beta-gal luminescence, NIH3T3 host cells, confirmation (AID 2630); type: functional, cell-based; conditions: Mus musculus
[13] = luciferase reporter signal suppression in cells – H4 neuroglioma cells, luminescence, dose response (AID 1990); type: functional, cell-based
[14] = Luminescence Cell-Based Dose Response HTS to Identify Inhibitors of 5'UTR Stem-Loop Driven Prion Protein mRNA Translation in H4 Neuroglioblastoma Cells. [Related pubchem assays: 1827 (Project Summary), 1813 (Primary HTS)]; type: functional
[15] = alpha-synuclein stem-loop luciferase translation blockers – H4 neuroglioma cells, luminescence, confirmation (AID 1988); type: functional, cell-based
Hexokinase HKDC1 = target: T3, Hexokinase HKDC1 (Homo sapiens, UniProt Q2TB90); test: inhibition of HKDC1 glucose phosphorylation – biochemical, W721R variant, dose response (AID 504729); type: functional
T3 sequence (Q2TB90 whole entry): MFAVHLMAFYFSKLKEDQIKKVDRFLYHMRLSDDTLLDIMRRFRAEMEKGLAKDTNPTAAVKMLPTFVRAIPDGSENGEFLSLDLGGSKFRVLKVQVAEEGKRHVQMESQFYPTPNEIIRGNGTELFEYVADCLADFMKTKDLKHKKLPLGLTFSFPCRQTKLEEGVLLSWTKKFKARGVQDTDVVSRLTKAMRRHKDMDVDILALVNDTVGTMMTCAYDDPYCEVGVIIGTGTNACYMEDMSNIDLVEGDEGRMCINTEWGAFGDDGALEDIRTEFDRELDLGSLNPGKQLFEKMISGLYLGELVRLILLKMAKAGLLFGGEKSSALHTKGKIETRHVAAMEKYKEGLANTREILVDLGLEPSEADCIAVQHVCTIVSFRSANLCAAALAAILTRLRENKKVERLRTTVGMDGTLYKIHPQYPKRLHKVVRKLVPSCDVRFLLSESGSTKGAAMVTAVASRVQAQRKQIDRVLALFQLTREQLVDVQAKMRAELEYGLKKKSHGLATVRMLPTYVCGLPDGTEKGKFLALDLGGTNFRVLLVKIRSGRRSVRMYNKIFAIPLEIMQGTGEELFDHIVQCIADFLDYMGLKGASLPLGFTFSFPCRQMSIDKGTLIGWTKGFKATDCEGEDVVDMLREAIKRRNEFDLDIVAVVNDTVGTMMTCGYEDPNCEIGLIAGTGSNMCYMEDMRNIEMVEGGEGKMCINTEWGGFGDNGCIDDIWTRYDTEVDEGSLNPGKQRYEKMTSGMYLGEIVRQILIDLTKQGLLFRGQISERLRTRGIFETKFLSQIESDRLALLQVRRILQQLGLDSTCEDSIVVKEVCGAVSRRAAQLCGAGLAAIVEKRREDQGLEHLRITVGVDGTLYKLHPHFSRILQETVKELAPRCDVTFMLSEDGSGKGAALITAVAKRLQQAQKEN

[16] = target: T4, Replicative DNA helicase DnaB (Mycobacterium tuberculosis, UniProt P9WMR3); test: DnaB intein splicing inhibitors, dose response, biochemical, cell-free fluorescence (AID 449749); type: functional
T4 sequence (P9WMR3 whole entry): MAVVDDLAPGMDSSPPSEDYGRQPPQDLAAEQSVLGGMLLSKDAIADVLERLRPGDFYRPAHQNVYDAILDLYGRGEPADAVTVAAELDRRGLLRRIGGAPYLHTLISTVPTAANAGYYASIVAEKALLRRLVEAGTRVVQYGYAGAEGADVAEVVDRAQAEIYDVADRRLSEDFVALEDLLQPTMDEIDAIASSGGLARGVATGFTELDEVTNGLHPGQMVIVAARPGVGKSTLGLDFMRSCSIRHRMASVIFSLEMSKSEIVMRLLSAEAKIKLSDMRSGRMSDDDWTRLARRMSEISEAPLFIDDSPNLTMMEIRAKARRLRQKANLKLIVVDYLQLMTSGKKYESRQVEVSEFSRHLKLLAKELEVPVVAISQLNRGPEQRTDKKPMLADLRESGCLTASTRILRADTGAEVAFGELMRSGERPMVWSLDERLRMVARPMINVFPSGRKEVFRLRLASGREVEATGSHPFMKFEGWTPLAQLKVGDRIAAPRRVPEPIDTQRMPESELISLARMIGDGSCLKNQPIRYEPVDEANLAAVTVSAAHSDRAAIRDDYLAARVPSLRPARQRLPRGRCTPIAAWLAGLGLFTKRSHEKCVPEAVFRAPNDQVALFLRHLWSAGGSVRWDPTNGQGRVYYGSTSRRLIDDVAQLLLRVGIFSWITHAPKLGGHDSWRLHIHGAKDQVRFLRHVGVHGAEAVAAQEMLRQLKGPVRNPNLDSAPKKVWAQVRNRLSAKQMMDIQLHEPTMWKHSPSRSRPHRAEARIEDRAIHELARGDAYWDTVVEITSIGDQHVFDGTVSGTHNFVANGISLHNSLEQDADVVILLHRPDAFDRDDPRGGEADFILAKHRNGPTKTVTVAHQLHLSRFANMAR

Protein RecA = target: T5, Protein RecA (Mycobacterium tuberculosis, UniProt P9WHJ3); test: Fluorescence Cell-Free Homogeneous Dose Retest to Identify Inhibitors of RecA-Intein Splicing Activity. [Related pubchem assays (depositor defined):AID2097, AID2223, AID489010, AID492950]; type: functional
T5 sequence (P9WHJ3 whole entry): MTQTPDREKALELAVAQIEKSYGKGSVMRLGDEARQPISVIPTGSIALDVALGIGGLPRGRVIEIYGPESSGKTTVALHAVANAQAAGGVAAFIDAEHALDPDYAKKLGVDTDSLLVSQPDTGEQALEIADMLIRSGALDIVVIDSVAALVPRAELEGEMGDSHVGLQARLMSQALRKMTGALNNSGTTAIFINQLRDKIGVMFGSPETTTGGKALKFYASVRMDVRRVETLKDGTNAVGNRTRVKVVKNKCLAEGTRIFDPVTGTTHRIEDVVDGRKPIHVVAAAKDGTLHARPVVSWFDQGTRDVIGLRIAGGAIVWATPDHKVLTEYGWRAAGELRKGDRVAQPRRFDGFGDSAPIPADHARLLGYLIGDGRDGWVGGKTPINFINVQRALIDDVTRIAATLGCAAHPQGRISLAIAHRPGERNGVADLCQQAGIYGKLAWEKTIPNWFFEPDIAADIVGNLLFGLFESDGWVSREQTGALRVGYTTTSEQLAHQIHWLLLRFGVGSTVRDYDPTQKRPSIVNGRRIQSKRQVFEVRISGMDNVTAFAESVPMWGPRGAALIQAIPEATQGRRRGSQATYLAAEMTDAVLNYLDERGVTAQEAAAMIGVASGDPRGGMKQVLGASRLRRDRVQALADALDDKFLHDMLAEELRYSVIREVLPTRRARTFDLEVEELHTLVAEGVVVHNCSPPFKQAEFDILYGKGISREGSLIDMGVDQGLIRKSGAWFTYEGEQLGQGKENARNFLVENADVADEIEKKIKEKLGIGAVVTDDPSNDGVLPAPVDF

INS1 [17] = test: beta-cell survival under cytokine stress – INS-1E, ATP luminescence, dry powder, dose response (AID 488844); type: functional, cell-based; conditions: Rattus norvegicus
[18] = target: T6, Sentrin-specific protease 8 (Homo sapiens, UniProt Q96LD8); type: functional
T6 sequence (Q96LD8 whole entry): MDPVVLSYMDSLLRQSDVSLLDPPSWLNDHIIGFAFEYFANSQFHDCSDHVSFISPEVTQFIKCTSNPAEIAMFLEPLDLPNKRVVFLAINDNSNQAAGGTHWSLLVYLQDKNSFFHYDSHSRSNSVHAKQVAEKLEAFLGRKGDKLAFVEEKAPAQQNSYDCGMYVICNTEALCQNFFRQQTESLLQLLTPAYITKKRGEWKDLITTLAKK

[19] = target: T6, Sentrin-specific protease 8; type: functional; remark: listed apart in the source

## CCC(=O)NC(c1ccc(C)cc1)c1cc(Cl)c2cccnc2c1O (configuration not stated)
Exodeoxyribonuclease V
  IC50: > 119 µM (inactive)
[1]
  IC50: > 119 µM (inactive)
HEK293
  AC50: 12.9 µM (active)
INS1 [2]
  AC50: 1.65 µM (active)

## O=C(O)c1cccc(N2C(=O)/C(=C/c3ccc(SCc4ccc(Cl)cc4)o3)SC2=S)c1
SUMO-activating enzyme [3]
  IC50: 1.39 µM (active)
[4]
  IC50: 4.43 µM (active)
SUMO-activating enzyme [5]
  IC50: 14.6 µM (active)
[6]
  IC50: 29.9 µM (active)
[7]
  IC50: 132 µM (active)

## O=C(Cc1cn(Cc2cccc(Cl)c2)c2ccccc12)N1CCCCCC1
[8]
  EC50: 3.09 µM (active)
[9]
  EC50: 1.75 µM (active)
[10]
  EC50: > 195 µM (not active)
[11]
  EC50: > 60 µM (not active)
[12]
  EC50: 3.09 µM (active)

## CSc1ccc(CN2CCCC(CNC(=O)c3ccc(F)cc3)C2)cc1 (configuration not stated)
[8]
  EC50: 7.17 µM (active)
[9]
  EC50: < 0.1 µM (active)
[10]
  EC50: > 195 µM (not active)
[11]
  EC50: > 30 µM (not active)
[12]
  EC50: 7.17 µM (active)
cells
  EC50: 0.12 µM (active)

## CCCCC[C@H](O)/C=C/[C@@H]1[C@@H](C/C=C\CCCC(=O)OC)[C@@H](O)C[C@H]1O
[13]
  EC50: > 120 µM (not active)
[14]
  EC50: > 120 µM (not active)
SUMO-activating enzyme [3]
  IC50: 10.5 µM (active)
[15]
  EC50: > 120 µM (not active)
SUMO-activating enzyme [5]
  IC50: 18.4 µM (active)
[6]
  IC50: 8.7 µM (active)
Hexokinase HKDC1
  IC50: 9.12 µM (active)
[16]
  AC50: 16.1 µM (active)
Protein RecA
  EC50: 12.2 µM (active)

## C[C@@H]1CN([C@@H](C)CO)C(=O)c2cccc(NC(=O)Nc3ccccc3)c2O[C@H]1CN(C)S(=O)(=O)c1ccc(Cl)cc1
INS1 [17]
  AC50: 116 µM (active)

## O=C(CCN1CCN(c2ccccc2)CC1)N/N=C/c1ccc([N+](=O)[O-])o1
[9]
  EC50: < 0.1 µM (active)
[11]
  EC50: > 60 µM (not active)
Exodeoxyribonuclease V
  IC50: > 119 µM (inactive)
[1]
  IC50: > 39.5 µM (inactive)
[18]
  IC50: 96.9 µM (inactive)
[19]
  IC50: 40 µM (active)
cells
  EC50: 0.037 µM (active)
